In US20230270745A1 (Seagen Inc., priority 2020, published 2023):

Assays:
[1] = test system: CTG-0927 HER2 positive cholangiocarcinoma PDX model; test: CTG-0927 cholangiocarcinoma PDX model, tumor growth inhibition; assay type: in vivo, Mice; conditions: study day 28; tucatinib 50 mg/kg orally twice per day, trastuzumab 20 mg/kg intraperitoneally once every three days
Procedure: (§1) The TGI index is calculated for a particular time point (e.g., a specific number of days into an experiment or clinical trial) according to the following formula: […]
(§2) where “Tx Day 0” denotes the first day that treatment is administered (i.e., the first day that an experimental therapy or a control therapy (e.g., vehicle only) is administered) and “Tx Day X” denotes X number of days after Day 0. […] As a non-limiting example, in an experiment where study day 0 corresponds to “Tx Day 0” and the TGI index is calculated on study day 28 (i.e., “Tx Day 28”), if the mean tumor volume in both groups on study day 0 is 250 mm^3 and the mean tumor volumes in the experimental and control groups are 125 mm^3 and 750 mm^3, respectively, then the TGI index on day 28 is 125%.
(§3) Tucatinib was administered orally at a dose of 50 mg/kg twice per day for 28 days (study days 0-27). […] A vehicle-only group was included as a negative control.

[2] = test system: CTG-0784 HER2 positive CRC PDX model; test: CTG-0784 CRC PDX model, tumor growth inhibition; assay type: in vivo, Mice; conditions: study day 29; tucatinib 50 mg/kg orally twice per day, trastuzumab 20 mg/kg intraperitoneally once every three days
Procedure: as §1, §2, §3

[3] = test system: CTG-0138 HER2 positive esophageal cancer PDX model; test: CTG-0138 esophageal cancer PDX model, tumor growth inhibition; assay type: in vivo, Mice; conditions: study day 30; tucatinib 50 mg/kg orally twice per day, trastuzumab 20 mg/kg intraperitoneally once every three days
Procedure: as §1, §2, §3

[4] = test system: NCI-H2170 NSCLC xenograft model; test: NCI-H2170 NSCLC xenograft model, tumor growth inhibition; assay type: in vivo, Mice; conditions: study day 39; tucatinib 50 mg/kg orally twice per day for 21 days, trastuzumab 20 mg/kg intraperitoneally twice per week, from study day 18
Procedure: as §1, §2
(§4) For the Calu-3 study, tucatinib was administered orally at a dose of 50 mg/kg twice per day for 21 days, beginning on study day 7. […] A vehicle-only group was included as a negative control.
For the NCI-H2170 study, tucatinib was administered orally at a dose of 50 mg/kg twice per day for 21 days, beginning on study day 18. […] A vehicle-only group was included as a negative control.

[5] = test system: GXA 3038 HER2 positive gastric cancer PDX model; test: GXA 3038 gastric cancer PDX model, tumor growth inhibition; assay type: in vivo, Mice; conditions: study day 28; tucatinib 50 mg/kg orally twice per day, trastuzumab 20 mg/kg intraperitoneally once every three days
Procedure: as §1, §2, §3

[6] = test system: CTG-0121 HER2 positive CRC PDX model; test: CTG-0121 CRC PDX model, tumor growth inhibition; assay type: in vivo, Mice; conditions: study day 29; tucatinib 50 mg/kg orally twice per day, trastuzumab 20 mg/kg intraperitoneally once every three days
Procedure: as §1, §2, §3

Calu-3 cells = test: Response of Calu-3 cells to tucatinib in vitro; assay type: cell-based; conditions: previously demonstrated
NCI-H2170 cells = test: Response of NCI-H2170 cells to tucatinib in vitro; assay type: cell-based; conditions: previously demonstrated
[7] = test system: CTG-0383 HER2 positive CRC PDX model; test: CTG-0383 CRC PDX model, tumor growth inhibition; assay type: in vivo, Mice; conditions: study day 29; tucatinib 50 mg/kg orally twice per day, trastuzumab 20 mg/kg intraperitoneally once every three days
Procedure: as §1, §2, §3

[8] = test system: Calu-3 NSCLC xenograft model; test: Calu-3 NSCLC xenograft model, tumor growth inhibition; assay type: in vivo, Mice; conditions: study day 28; tucatinib 50 mg/kg orally twice per day for 21 days, trastuzumab 20 mg/kg intraperitoneally once every three days, from study day 7
Procedure: as §1, §2, §4

[9] = test system: GXA 3039 HER2 positive gastric cancer PDX model; test: GXA 3039 gastric cancer PDX model, tumor growth inhibition; assay type: in vivo, Mice; conditions: study day 29; tucatinib 50 mg/kg orally twice per day, trastuzumab 20 mg/kg intraperitoneally once every three days
Procedure: as §1, §2, §3

[10] = test system: GXA 3054 HER2 positive gastric cancer PDX model; test: GXA 3054 gastric cancer PDX model, tumor growth inhibition; assay type: in vivo, Mice; conditions: study day 17; tucatinib 50 mg/kg orally twice per day, trastuzumab 20 mg/kg intraperitoneally once every three days
Procedure: as §1, §2, §3

[11] = test system: CTG-0137 HER2 positive esophageal cancer PDX model; test: CTG-0137 esophageal cancer PDX model, tumor growth inhibition; assay type: in vivo, Mice; conditions: study day 15; tucatinib 50 mg/kg orally twice per day, trastuzumab 20 mg/kg intraperitoneally once every three days
Procedure: as §1, §2, §3

## Cc1cc(Nc2ncnc3ccc(NC4=NC(C)(C)CO4)cc23)ccc1Oc1ccn2ncnc2c1 [Tucatinib, tucatinib]
[1]
  Observed TGI (tumor growth inhibition index): 48%
[2]
  Observed TGI (tumor growth inhibition index): 50%
[3]
  Observed TGI (tumor growth inhibition index): 69%
[4]
  Observed TGI (tumor growth inhibition index): 91%
[5]
  Observed TGI (tumor growth inhibition index): 110%
[6]
  Observed TGI (tumor growth inhibition index): 104%
Calu-3 cells
  Response to tucatinib in vitro: good responses
NCI-H2170 cells
  Response to tucatinib in vitro: good responses
[7]
  Observed TGI (tumor growth inhibition index): 117%
[8]
  Observed TGI (tumor growth inhibition index): 63%
[9]
  Observed TGI (tumor growth inhibition index): 48%
[10]
  Observed TGI (tumor growth inhibition index): 65%
[11]
  Observed TGI (tumor growth inhibition index): 49%
